Measurements reported in patent US7538129B2, “Diazonamide A analog” (Board of Regents, The University of Texas System, priority 2005, dated 2009).

Columns and labels:
MDA-MB-231 = assay: growth inhibition (GI50) of tumor cell lines; format: cell-based; details: MDA-MB-231, FIG. 1
Description: A number of tumor cell lines representing breast, lung, colon, ovarian and prostate cancer as well as melanoma were assayed under standard growth conditions in presence of varying amounts of diazonamide A, a hydroxylated form of Compound J, Compound J, paclitaxel and vinblastine. The results are graphed as the concentration that diminishes growth by a factor of two (GI50) in FIG. 1.

[1] = system: MDA-MB-435 (breast) xenografts; assay: growth inhibition of MDA-MB-435 xenografts; format: in vivo, mice; details: 0.7 mg/kg, IP
HCT116 xenografts = assay: growth inhibition of HCT116 xenografts; format: in vivo, mice; details: HCT116 (colon), 0.45 mg/kg, IP
Description: Details of the preparation of murine models containing xenografts of HCT116 cells or PC-3 cells are described in the section following these examples. After the tumors were grown, therapy utilizing Compound J or paclitaxel was initiated. […] In FIG. 4A, the *'s represent control mice, the squares represent 5 mg/kg Compound J; the diamonds represent 20 mg/kg Compound J; and the slanted line represents 20 mg/kg paclitaxel.
The details of the protocol for Examples 19 and 20 are as follows:
• PC3 prostrate tumor cells and HCT116 colon tumor cells (acquired from the tumor repository Division of Cancer Treatment and Diagnosis (DCTD) of the NCI • Complete RPMI Media • RPMI (Cat# 11875-085, Invitrogen) • 10% Heat-inactivated (30′ 56° C.) Fetal Bovine Serum (Cat# 100-106, Gemini Bio-Products • 2 mM L-glutamine (Cat# 25030-081, Invitrogen) • 0.1 mM MEM Non-Essential Amino Acids Solution (Cat#11140-050, Invitrogen) • 10 U/ml Penicillin/10 μg/ml Streptomycin (Cat#15140-122, Invitrogen) • 1 mM Sodium Pyruvate (Cat#l 1360-070) • Trypsin-EDTA (Cat#25300-054, Invitrogen) • Ca^2+/Mg^2+-free Phosphate Buffered Saline, 5% dextrose in water • Cell Culture Dish 150 mm×25 mm (Cat# 430599, Coming, Inc.) • 10 and 25 ml pipets, standard pipet-aid, p200 and p1000 pipette tips and standard pipetmen • Athymic NCr-nu/nu nude mice at 6-12 weeks of age, either sex (Strain code: 01B74, NCI Frederick Animal Production Program—suppliers include Charles River Labs and Taconic Farms). Female mice of approximately 7 weeks of age were utilized for existing experiments. • Standard 1 cc tuberculin syringe, 30G½ and 25G⅝ needles (Becton Dickinson) • Falcon 5 ml tubes (Cat#352054) • 50 and 15 ml disposable plastic conical tubes (Falcon or similar vendor) • Trypan Blue Solution (0.4%) (Cat#T8154, Sigma) • Hausser phase contrast hemacytometer (Cat# 02-671-54, Fisher) • Ice bucket • Balance for weighing mice (accurate to 0.2 g) • Vernier calipers • Vivarium facility free from known pathogens (nude mice should be housed in isolation from conventional mice if possible—separate rooms or micro-isolator cages equipped with individual air flow; all animal housing, bedding, water should be autoclaved prior to use; standard irradiated mouse chow should be used; animals should be changed out of cages within laminar flow hood; investigators handling mice should be suitably garbed—disposable gown, bonnet, booties, gloves, mask) • AB-5 (Compound J) compound • Ethyl alcohol, 200 proof (Aaper, MFD 041205) • Cremaphor (Cat# C5135, Sigma) • Paclitaxel (Cat#ANP0010, Polymed Therapeutics) Procedure: • 1) Rapidly thaw PC3 or HCT116 cells (if necessary) in 37° C. water bath. Transfer contents to 9ml complete RPMI media. Spin 5′ at 1200 rpm (240 Xg). Discard media and resuspend pellet in 8 ml complete RPMI media. Plate in 100 mm×25 mm cell culture dish in 5% CO2, 37° C. humidified incubator. • 2) Allow to grow for 5-10 days, splitting (aspirate media, wash with 3-5 ml PBS, add 1 ml trypsin-EDTA, incubate 3-5′ at 37° C., add media to desired volume and transfer to multiple plates) 1:8 to 1:10 every 3-4 days as necessary to allow cells to enter phase of logarithmic growth. • 3) When cells are growing well, begin to expand to 150 mm×25 mm dishes. We use 20 ml of media in a 150 mm dish and use 2 ml of trypsin for splitting. When nearly confluent, there should be 2×10^7 cells/150 mm dish. • 4) Plan ahead to time arrival of nu/nu mice such that they can acclimate to animal facility for 1 week prior to injection of tumor cells. […] Plan to inject 10 million cells/mouse and allow for loss of cells/volume during injection process. That is, if 30 mice are to be injected, plan to harvest cells sufficient for at least 35 injections—35×10 million cells=3.5×10^8 cells. In the existing HCT116 experiment, 7.5×10^6 cells were injected per mouse. Five mice per group were utilized for AB-5 treatment and four mice per group were utilized for the control and paclitaxel treatments. […]

SMILES | GI50 (concentration that diminishes growth by a factor of two) (MDA-MB-231) | #Tumor Free (day) [1] | #Tumor Free (day) (HCT116 xenografts) | % Max T/C (HCT116 xenografts) | Log10 Tumor Cell Kill (HCT116 xenografts)
CC(C)[C@H](O)C(=O)N[C@H]1Cc2ccc3c(c2)[C@]24C5=C(N=C(O5)[C@H](C(C)C)NC1=O)c1nc(Cl)c(o1)-c1c(Cl)[nH]c5cccc(c15)-c1cccc2c1N[C@@H]4O3 [diazonamide A] | more effective than the remaining drugs |  |  |  | 
CC[C@]1(O)C[C@@H]2CN(CCc3c([nH]c4ccccc34)[C@@](C(=O)OC)(c3cc4c(cc3OC)N(C)[C@H]3[C@@](O)(C(=O)OC)[C@H](OC(C)=O)[C@]5(CC)C=CCN6CC[C@]43[C@@H]65)C2)C1 [vinblastine, reference compound] | more effective than the remaining drugs | 0/6 | 0/5 | 56.0% | 0.2
